Tests used:
[1] = tested on: U-937; experiment: Antiproliferative activity against human U937 cells after 72 hrs by CCK8 assay; format: functional
[2] = Antiproliferative activity against human WI38 cells after 72 hrs by CCK8 assay; format: cell-based, WI-38
[3] = tested on: DU-145; experiment: Antiproliferative activity against human DU145 cells after 72 hrs by CCK8 assay; format: functional
[4] = Antiproliferative activity against human MOLT4 cells after 72 hrs by CCK8 assay; format: functional, MOLT-4
[5] = Antiproliferative activity against human HLF cells after 72 hrs by CCK8 assay; format: cell-based
[6] = target: Histone deacetylase 4 (Homo sapiens, UniProt P56524); experiment: Inhibition of recombinant human HDAC4 after 60 mins by fluorescence assay
[7] = target: Histone deacetylase 5 (Homo sapiens, UniProt Q9UQL6); experiment: Inhibition of recombinant human HDAC5 after 60 mins by fluorescence assay
[8] = target: T1, Histone deacetylase 11 (Homo sapiens, UniProt Q96DB2); experiment: Inhibition of recombinant human HDAC11 after 60 mins by fluorescence assay
T1 sequence (Q96DB2 whole entry): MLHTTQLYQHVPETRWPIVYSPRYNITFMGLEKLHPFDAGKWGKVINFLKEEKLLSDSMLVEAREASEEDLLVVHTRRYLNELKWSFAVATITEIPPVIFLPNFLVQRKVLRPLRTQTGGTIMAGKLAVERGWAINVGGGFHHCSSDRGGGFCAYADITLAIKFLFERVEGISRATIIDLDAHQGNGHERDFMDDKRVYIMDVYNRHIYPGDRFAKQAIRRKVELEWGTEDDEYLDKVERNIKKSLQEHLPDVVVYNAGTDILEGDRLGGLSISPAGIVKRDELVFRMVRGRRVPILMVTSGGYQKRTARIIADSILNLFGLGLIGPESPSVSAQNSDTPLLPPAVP

[9] = target: Histone deacetylase 9 (Homo sapiens, UniProt Q9UKV0); experiment: Inhibition of recombinant human HDAC9 after 60 mins by fluorescence assay
[10] = target: T2, Histone deacetylase 7 (Homo sapiens, UniProt Q8WUI4); experiment: Inhibition of recombinant human HDAC7 after 60 mins by fluorescence assay
T2 sequence (Q8WUI4 whole entry): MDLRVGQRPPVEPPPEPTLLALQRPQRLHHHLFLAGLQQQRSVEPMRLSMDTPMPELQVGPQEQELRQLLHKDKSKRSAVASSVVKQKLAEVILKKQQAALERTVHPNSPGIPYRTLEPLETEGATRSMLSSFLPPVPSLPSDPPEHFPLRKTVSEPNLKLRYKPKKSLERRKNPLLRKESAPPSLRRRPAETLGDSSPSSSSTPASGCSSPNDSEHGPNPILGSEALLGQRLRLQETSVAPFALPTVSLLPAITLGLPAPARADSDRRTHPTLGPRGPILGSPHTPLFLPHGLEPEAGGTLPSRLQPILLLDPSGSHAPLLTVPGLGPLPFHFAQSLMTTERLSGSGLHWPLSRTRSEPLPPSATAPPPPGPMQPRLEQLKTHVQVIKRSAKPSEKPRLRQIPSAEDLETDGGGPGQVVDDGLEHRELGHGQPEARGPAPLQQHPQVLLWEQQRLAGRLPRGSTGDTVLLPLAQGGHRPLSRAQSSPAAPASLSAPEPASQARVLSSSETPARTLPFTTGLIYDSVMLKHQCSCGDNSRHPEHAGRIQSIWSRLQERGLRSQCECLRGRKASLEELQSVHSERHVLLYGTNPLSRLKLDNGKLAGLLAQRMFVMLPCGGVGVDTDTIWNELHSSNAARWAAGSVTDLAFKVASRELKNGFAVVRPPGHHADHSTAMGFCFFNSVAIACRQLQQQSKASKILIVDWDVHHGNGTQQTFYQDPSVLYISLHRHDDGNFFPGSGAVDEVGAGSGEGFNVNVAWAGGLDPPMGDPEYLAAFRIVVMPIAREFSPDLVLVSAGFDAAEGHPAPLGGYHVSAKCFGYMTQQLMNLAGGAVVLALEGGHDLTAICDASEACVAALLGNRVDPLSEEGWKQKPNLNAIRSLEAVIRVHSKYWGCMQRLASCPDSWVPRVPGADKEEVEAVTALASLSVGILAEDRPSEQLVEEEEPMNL

[11] = target: T3, Polyamine deacetylase HDAC10 (Homo sapiens, UniProt Q969S8); experiment: Inhibition of recombinant human HDAC10 after 60 mins by fluorescence assay
T3 sequence (Q969S8 whole entry): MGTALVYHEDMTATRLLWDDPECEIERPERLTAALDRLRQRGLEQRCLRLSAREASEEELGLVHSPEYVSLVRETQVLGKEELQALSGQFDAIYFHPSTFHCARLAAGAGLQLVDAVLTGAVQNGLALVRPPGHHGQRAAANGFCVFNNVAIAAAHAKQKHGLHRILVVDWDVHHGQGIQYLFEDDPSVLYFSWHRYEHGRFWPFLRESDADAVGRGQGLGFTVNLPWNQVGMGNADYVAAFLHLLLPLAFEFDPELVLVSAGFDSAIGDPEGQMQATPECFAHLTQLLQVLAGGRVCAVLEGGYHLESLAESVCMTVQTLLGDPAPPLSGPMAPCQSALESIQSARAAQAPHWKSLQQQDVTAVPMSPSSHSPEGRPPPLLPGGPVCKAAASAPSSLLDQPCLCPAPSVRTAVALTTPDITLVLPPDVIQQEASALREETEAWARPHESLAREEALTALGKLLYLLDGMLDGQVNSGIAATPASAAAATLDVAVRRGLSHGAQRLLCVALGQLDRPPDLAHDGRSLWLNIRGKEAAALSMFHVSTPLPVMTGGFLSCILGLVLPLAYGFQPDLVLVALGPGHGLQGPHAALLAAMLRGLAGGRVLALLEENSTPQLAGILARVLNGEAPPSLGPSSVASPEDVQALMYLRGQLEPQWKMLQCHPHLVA

[12] = target: Histone deacetylase 1 (Homo sapiens, UniProt Q13547); experiment: Inhibition of recombinant human HDAC1 after 60 mins by fluorescence assay
[13] = target: T4, Histone deacetylase 8 (Homo sapiens, UniProt Q9BY41); experiment: Inhibition of recombinant human HDAC8 after 60 mins by fluorescence assay
T4 sequence (Q9BY41 whole entry): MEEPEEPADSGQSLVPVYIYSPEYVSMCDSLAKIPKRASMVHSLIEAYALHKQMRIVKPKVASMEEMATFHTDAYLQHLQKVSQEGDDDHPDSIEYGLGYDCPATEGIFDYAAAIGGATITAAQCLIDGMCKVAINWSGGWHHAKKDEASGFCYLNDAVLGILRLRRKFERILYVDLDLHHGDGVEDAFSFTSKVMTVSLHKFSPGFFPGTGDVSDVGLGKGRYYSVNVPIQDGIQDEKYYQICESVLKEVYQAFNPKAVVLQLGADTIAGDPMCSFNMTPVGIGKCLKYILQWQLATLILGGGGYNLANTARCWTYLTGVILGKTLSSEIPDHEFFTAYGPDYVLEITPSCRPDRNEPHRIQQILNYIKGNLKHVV

[14] = target: Histone deacetylase 2 (Homo sapiens, UniProt Q92769); experiment: Inhibition of recombinant human HDAC2 after 60 mins by fluorescence assay
[15] = target: T5, Protein deacetylase HDAC6 (Homo sapiens, UniProt Q9UBN7); experiment: Inhibition of recombinant human HDAC6 after 60 mins by fluorescence assay
T5 sequence (Q9UBN7 whole entry): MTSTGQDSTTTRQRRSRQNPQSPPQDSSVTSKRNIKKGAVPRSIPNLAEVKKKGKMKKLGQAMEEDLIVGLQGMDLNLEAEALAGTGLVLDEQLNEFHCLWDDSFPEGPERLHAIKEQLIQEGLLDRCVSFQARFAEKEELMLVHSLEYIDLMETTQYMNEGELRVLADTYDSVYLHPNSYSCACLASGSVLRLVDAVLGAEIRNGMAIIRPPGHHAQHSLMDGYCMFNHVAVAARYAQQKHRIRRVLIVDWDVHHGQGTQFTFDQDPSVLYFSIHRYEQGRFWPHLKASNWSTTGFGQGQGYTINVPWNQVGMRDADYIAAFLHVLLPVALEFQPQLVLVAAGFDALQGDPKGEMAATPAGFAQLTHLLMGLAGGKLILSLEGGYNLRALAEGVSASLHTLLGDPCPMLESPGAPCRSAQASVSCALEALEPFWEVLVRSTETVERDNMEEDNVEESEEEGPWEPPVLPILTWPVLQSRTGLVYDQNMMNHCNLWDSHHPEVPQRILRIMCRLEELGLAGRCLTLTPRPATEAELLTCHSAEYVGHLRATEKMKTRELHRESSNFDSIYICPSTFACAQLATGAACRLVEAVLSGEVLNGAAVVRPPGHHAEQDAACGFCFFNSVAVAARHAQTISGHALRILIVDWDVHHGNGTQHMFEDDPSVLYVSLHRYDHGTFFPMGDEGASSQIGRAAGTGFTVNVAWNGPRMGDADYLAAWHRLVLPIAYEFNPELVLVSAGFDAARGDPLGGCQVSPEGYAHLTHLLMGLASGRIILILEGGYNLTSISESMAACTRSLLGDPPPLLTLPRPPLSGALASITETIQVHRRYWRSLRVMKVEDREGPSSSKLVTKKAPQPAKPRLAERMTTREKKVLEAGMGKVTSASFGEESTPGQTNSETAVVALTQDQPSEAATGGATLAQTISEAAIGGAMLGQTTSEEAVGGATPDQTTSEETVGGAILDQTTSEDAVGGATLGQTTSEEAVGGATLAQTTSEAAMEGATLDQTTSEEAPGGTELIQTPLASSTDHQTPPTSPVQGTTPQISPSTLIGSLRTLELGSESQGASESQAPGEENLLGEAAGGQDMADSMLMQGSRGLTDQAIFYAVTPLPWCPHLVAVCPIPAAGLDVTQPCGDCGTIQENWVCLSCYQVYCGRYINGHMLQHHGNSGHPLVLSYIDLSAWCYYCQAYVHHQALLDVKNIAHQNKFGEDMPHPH

Chain of Histone deacetylase 9 (Q9UKV0 whole entry): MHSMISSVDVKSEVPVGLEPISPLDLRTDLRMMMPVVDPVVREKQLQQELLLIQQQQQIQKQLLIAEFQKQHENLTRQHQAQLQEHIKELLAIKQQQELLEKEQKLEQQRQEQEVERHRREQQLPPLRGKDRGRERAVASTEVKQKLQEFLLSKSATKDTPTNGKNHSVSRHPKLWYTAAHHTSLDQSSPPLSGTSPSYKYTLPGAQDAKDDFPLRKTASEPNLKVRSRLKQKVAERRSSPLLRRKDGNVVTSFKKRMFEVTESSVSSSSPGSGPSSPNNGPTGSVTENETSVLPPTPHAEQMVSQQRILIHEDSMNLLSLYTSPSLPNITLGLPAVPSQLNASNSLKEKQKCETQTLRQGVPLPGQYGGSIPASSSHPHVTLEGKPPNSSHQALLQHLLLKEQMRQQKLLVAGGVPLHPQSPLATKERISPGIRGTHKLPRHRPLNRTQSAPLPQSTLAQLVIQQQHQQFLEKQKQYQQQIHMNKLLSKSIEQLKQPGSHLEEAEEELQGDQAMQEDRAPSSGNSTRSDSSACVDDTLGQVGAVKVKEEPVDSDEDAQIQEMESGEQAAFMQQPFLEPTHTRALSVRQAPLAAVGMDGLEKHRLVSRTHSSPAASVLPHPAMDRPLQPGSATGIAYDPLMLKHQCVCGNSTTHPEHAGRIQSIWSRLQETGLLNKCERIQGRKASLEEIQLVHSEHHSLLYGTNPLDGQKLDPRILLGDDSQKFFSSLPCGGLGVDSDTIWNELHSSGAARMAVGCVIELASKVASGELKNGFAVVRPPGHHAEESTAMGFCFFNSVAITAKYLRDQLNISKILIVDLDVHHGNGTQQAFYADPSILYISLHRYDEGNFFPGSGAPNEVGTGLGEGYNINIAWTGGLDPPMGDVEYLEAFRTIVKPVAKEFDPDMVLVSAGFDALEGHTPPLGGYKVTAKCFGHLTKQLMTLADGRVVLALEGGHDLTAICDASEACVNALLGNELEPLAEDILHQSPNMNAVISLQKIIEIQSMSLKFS
Chain of Histone deacetylase 5 (Q9UQL6 whole entry): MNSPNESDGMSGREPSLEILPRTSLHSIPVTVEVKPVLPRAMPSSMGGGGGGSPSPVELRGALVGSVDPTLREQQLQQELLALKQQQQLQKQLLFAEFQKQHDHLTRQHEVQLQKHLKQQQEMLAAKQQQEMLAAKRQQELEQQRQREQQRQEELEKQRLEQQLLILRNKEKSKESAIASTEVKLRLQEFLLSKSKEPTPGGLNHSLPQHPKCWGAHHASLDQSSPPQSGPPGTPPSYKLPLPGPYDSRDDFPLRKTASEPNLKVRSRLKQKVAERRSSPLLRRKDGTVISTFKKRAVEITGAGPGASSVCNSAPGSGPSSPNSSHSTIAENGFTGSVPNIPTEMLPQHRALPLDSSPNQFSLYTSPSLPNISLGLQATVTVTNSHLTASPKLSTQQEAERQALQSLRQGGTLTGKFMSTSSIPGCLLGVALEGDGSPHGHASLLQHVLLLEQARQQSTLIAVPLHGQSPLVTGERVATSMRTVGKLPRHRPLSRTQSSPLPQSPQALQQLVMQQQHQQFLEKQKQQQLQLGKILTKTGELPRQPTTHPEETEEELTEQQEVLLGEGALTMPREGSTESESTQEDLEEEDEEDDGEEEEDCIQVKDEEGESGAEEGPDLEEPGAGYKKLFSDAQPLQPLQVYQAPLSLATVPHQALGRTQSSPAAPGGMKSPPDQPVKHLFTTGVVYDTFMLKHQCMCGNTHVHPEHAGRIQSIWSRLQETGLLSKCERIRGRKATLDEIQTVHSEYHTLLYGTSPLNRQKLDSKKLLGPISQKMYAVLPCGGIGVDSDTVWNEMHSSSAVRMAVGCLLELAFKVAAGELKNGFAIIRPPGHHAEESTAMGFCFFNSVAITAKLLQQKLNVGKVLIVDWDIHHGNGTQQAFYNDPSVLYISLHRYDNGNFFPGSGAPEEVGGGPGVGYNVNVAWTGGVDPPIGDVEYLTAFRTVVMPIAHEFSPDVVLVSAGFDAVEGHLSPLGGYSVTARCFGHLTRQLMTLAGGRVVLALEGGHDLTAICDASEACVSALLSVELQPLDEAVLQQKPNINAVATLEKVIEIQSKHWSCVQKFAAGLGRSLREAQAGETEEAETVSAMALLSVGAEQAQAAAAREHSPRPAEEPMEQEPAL
Chain of Histone deacetylase 4 (P56524 whole entry): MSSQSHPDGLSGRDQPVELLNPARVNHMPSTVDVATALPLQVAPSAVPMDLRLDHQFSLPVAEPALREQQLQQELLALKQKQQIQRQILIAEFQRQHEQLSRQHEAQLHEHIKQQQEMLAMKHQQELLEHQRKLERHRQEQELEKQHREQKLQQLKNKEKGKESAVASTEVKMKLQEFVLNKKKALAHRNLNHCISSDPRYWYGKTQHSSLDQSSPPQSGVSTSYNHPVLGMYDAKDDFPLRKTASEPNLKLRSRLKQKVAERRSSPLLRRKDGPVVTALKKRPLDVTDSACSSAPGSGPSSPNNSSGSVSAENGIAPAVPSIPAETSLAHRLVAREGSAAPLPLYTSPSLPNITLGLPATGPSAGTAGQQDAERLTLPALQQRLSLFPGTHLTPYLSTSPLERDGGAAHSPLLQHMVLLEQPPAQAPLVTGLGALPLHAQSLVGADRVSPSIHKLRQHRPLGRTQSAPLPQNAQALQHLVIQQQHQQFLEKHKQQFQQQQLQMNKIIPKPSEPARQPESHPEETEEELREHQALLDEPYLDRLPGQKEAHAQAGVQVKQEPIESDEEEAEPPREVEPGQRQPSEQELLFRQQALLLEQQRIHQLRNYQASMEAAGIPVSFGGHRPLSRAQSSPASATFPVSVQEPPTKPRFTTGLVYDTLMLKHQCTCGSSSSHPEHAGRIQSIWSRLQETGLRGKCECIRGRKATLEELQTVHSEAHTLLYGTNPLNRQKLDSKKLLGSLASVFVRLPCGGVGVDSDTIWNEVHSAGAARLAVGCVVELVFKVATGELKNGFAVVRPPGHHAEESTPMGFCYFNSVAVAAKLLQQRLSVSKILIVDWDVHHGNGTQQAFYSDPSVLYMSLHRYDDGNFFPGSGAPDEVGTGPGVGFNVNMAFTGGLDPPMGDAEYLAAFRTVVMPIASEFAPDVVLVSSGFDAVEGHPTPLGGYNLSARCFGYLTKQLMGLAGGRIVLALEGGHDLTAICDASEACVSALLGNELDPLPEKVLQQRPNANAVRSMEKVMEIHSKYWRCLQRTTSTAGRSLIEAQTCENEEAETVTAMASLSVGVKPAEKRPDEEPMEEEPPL
Chain of Histone deacetylase 1 (Q13547 whole entry): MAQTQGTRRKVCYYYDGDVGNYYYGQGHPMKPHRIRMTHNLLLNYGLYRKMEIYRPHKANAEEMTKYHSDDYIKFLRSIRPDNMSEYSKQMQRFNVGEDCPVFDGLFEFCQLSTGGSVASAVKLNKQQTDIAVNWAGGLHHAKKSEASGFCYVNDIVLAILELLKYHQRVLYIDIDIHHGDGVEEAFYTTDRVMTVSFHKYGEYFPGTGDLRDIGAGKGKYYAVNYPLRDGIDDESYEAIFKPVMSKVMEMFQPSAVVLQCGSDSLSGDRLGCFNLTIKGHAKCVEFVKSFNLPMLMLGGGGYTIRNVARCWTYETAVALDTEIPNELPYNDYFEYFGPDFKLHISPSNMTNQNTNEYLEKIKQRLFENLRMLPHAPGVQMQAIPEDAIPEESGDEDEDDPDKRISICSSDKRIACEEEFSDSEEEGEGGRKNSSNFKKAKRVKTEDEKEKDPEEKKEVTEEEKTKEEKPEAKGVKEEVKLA
Chain of Histone deacetylase 2 (Q92769 whole entry): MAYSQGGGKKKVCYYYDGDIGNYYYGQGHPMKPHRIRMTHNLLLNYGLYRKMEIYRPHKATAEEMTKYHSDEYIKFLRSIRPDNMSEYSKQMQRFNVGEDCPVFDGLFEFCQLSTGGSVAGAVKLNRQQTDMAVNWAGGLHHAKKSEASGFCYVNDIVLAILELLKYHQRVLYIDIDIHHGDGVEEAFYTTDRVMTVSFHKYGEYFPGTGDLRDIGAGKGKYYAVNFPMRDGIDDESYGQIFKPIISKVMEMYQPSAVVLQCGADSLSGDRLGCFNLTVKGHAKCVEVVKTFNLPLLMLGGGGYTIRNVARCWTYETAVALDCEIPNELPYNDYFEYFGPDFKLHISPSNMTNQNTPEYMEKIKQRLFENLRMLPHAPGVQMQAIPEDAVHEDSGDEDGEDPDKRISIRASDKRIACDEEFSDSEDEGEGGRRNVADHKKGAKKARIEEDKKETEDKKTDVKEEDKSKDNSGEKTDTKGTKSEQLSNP

## O=C(CCCCCCC(=O)Nc1ccccc1)NO [VORINOSTAT]
[1]
  GI50: 1.46 µM
[2]
  GI50 at 72 h: 6.08 µM
[3]
  GI50: 1.59 µM
[4]
  GI50: 0.542 µM
[5]
  GI50 at 72 h: 1.65 µM

## C/C=C1\NC(=O)[C@H]2CSSCC/C=C/[C@H](CC(=O)N[C@H](C(C)C)C(=O)N2)OC(=O)[C@H](C(C)C)NC1=O [ROMIDEPSIN]
[6]
  IC50: > 10 µM
[7]
  IC50: > 10 µM
[8]
  IC50: > 10 µM
[9]
  IC50: > 10 µM
[10]
  IC50: > 10 µM
[11]
  IC50: 0.011 µM
[2]
  GI50 at 72 h: 0.00539 µM
[12]
  IC50: 1.05 µM
[5]
  GI50 at 72 h: 0.00489 µM

## CCCCCCCC(=O)SCC/C=C/[C@@H]1CC(=O)NCc2nc(cs2)C2=N[C@@](C)(CS2)C(=O)N[C@@H](C(C)C)C(=O)O1 [LARGAZOLE]
[6]
  IC50: > 10 µM
[1]; Homo sapiens, U-937, 72 h
  GI50: 0.0168 µM
[7]
  IC50: > 10 µM
[8]
  IC50: > 10 µM
[9]
  IC50: > 10 µM
[13]
  IC50: > 10 µM
[10]
  IC50: > 10 µM
[14]
  IC50: 1.01 µM
[11]
  IC50: 2.21 µM
[2]
  GI50 at 72 h: 0.0825 µM
[3]; Homo sapiens, DU-145, 72 h
  GI50: 0.011 µM
[12]
  IC50: 0.0698 µM
[4]; Homo sapiens, MOLT-4, 72 h
  GI50: 0.0162 µM
[5]
  GI50 at 72 h: 0.0397 µM

## C/C=C1\NC(=O)C(CS)NC(=O)[C@@H](C(C)C)NC(=O)C[C@@H](/C=C/CCS)OC(=O)[C@H](C(C)C)NC1=O (single isomer, unassigned) [FR-135313]
[6]
  IC50: 9.57 µM
[7]
  IC50: > 10 µM
[8]
  IC50: 2.36 µM
[9]
  IC50: > 10 µM
[13]
  IC50: 0.025 µM
[10]
  IC50: 1.76 µM
[14]
  IC50: 0.0014 µM
[11]
  IC50: 0.0039 µM
[15]
  IC50: 0.149 µM
